Results on 4 compounds are retold here after patent EP2246037A2, “Anti-aging and whitening properties of quercetin, 18a-glycyrrhetinic acid, hederagenin and its derivatives” (Korres S.A. Natural Products, priority 2009, dated 2010).

The test system of experiment [1] is middle aged and terminally senescent HFL-1 HDFs. As to the kind of experiment: Reversal of senescent phenotype: cell number, morphology and β-galactosidase staining after 1 week of treatment. The class given is cell-based, human. The note with it: for proliferation (number of cells) / β-galactosidase activity staining: 1 week; for morphology and proliferation: summary of section 3, middle aged or terminally senescent cells. The protocol: (§1) The steps, methods and results that were obtained regarding the anti-aging properties of the examined substances are the following: • 1) Study of the lifespan of human diploid fibroblasts in vitro in the presence of the substances. • 1.1. HFL-1 human diploid fibroblasts (HDFs) were used in in vitro conditions (growth at 37°C, 5% CO2 and 95% humidity). • 1.2. The cells were maintained in Dulbecco's modified Eagle's medium (DMEM ®; Invitrogen Life Technologies Inc.) supplemented with 10% (v/v) fetal calf serum, 100 Units/ml penicillin, 100 µg/ml strepromycin, 2 mM glutamine and 1% (v/v) non-essential amino acids (complete medium). • 1.3. The cells were constantly cultured in culture medium supplemented with the substances [final concentration for quercetin (QUER), 18α-glycyrrhetinic acid (18α GA), and hederagenin (HED): 2 µg/ml and for quercetin caprylate (QU-CAP) three concentrations were applied: 0.5, 2 and 5 µg/ml]. Quercetin, 18α-glycyrrhetinic acid and hederagenin were diluted in DMSO (dimethyl sulfoxide) whereas quercetin caprylate was diluted in caprilic/capric triglycerides (CAP). Therefore, the control cultures were incubated in medium supplemented with 0.1% DMSO or 0.1% CAP. • 1.4. The cells were replenished with fresh media supplemented with the substances or the diluents every 24 h and their numbers were examined using a Coulter Z2 ® counter (Coulter Corporation) until they reached senescence (approximately after 13 weeks). The cumulative population doublings performed by each culture were calculated using the following formula: CPD=Σ[PD] where PD=LOG[Nfinal/Ninitial]/LOG[2], where N final represents the number of cells that were measured when each culture reached confluence and N initial represents the number of cells that was initially seeded. • 1.5. Photographs of the cells maintained in cell culture and treated with the various substances for the same time period were taken. • 1.6. […] More specifically, cells that were incubated with quercetin caprylate gave up to 2.8% more population doublings as compared to the population doublings performed by the relative control cultures. Cells that were incubated with the other substances gave up to 2.9% more population doublings as compared to their relative control cultures. • 1.7. […] Cells that were treated with either of the tested substances maintained the young morphology for longer as compared to the control cultures (DMSO-treated and CAP-treated). […] HFL-1 HDFs were cultured as described in 1.1-1.4 for 10 consecutive weeks and were then subjected to β-galactosidase activity staining. • 1.2. Briefly, 10^5 cells from each culture were seeded in 6-well plates. After 24 h cells were washed with PBS (phosphate buffered saline), fixed in 0.2% glutaraldehyde and 2% formaldehyde for 5 min, washed again with PBS, and finally stained for 24 h at 37 °C in the absence of CO2, in staining solution (150 mM NaCl, 2 mM MgCl2, 5 mM K3Fe(CN)6, 40 mM citric acid, and 12 mM sodium phosphate, pH 6.0) containing 1 mg/ml 5-bromo-4-chloro-3-indolyl-β-D-galactoside. Photographs were then taken. • 1.3. […] HFL-1 HDFs that have senesced in vitro were used (growth at 37°C, 5% CO2 and 95% humidity). More specifically, middle aged HFL-1 HDFs (cpd 59) and terminally senescent HFL-1 HDFs (cpd 65) that had senesced in the absence of any substance were used. • 3.2. The cells were seeded and maintained in complete medium (see 1.2). Culture medium supplemented with the substances [final concentration for quercetin (QUER), 18α-glycyrrhetinic acid (18α GA), and hederagenin (HED): 2 µg/ml and for quercetin caprylate (QU-CAP) three concentrations were applied: 0.5, 2 and 5 µg/ml] or the diluents (0.1% DMSO or 0.1% CAP) were added 24 h later. The cells were replenished with fresh media supplemented with the substances or the diluents every 24 h for 1 week and their numbers were then examined using a Coulter Z2 ® counter (Coulter Corporation). • 3.3. […]

The test system of experiment [2] is HFL-1 human diploid fibroblasts. Nature of the experiment: Lifespan (cumulative population doublings) and morphology of fibroblasts under continuous treatment. Format: cell-based. Set-up: key to cpd: cumulative population doublings: CPD=Σ LOG[Nfinal/Ninitial]/LOG[2]. The note with it: for appearance of the senescent phenotype: summary of sections 1 and 2. The method, then: as §1

Experiment [3] has as its system Mouse melanocytes (B10F16 cell line). As to the kind of experiment: Cellular whitening of melanocytes (cell pellet photographs). The class given is cell-based. The following applies: 72 h. The method, then:
(§2) The steps, methods and results that were obtained regarding the whitening properties of the examined substances are the following: • A) Cellular whitening of melanocytes. • A.1. Mouse melanocytes (B10F16 cell line) were used in in vitro conditions (growth at 37°C, 5% CO2 and 95% humidity). • A.2. The cells were maintained in Dulbecco's modified Eagle's medium (DMEM®; Invitrogen Life Technologies Inc.) supplemented with 10% (v/v) fetal calf serum, 100 Units/ml penicillin, 100 µg/ml strepromycin, 2 mM glutamine and 1% (v/v) non-essential amino acids (complete medium). • A.3. 10^5 cells were seeded in petri dishes and the following day they were fed with medium supplemented with the substances [final concentration for all substances: 5 µg/ml and 10 µg/ml]. Quercetin (QUER), 18α-glycyrrhetinic acid (18α GA) and hederagenin (HED) were diluted in DMSO whereas quercetin caprylate was diluted in caprilic/capric triglycerides (CAP). Therefore, the control cultures were incubated in medium supplemented with 0.1% DMSO or 0.1% CAP. The media were replenished every 24 h and the cells were kept under these conditions constantly for 72 h. Cells were then collected and pelleted and the cell pellet was photographed. • A.4. […] The result was positively correlated to the concentration of quercetin used. • B) Detection of tyrosinase expression. • B.1. Mouse melanocytes were cultured as described in A.1.-A.3. After 72 h of treatment, the cells were collected, lysed and proteins were extracted and subjected to SDS-PAGE followed by immunoblot analysis against tyrosinase. Protein concentrations were determined using the Bradford method with BSA as a standard. • B.2.
Photographs of pellet of melanocytes that were treated with the substances for 72 h.

The subject of experiment [4] is proteasome subunits (β5, α7). As to the kind of experiment: Immunoblot of proteasome subunit levels in treated cells. Format: cell-based, human. The note with it: 24 h treatment.
Experiment [5] concerns HFL-1 HDFs. As to the kind of experiment: Levels of oxidized (carbonylated) proteins, OxyBlot analysis. Format: cell-based, human. The following applies: 24 h treatment, versus relative control cells.
Experiment [6] deals with tyrosinase. Nature of the experiment: Immunoblot of tyrosinase expression in melanocytes. The class given is cell-based, Mouse. The following applies: 72 h. The protocol:
as §2
Immunoblot analysis of tyrosinase (70-80 kDa) in melanocytes treated with the substances or the relative diluents. Equal protein loading was verified by stripping the membrane and reprobing them with GAPDH (37 kDa) antibody (bottom panel).
(A western blot detects proteins with antibodies after separation by electrophoresis.)

Setting [7] is: middle aged cells (cpd 59), 2 µg/ml, quercetin caprylate 0.5, 2 and 5 µg/ml.
[8] abbreviates: middle aged cells, 2 µg/ml, quercetin caprylate all three concentrations.
The mark [9] stands for this setting: HFL-1 cells, 2 µg/ml, 13 consecutive weeks.
Setting [10] is: Table 2, 2 µg/ml, 55 days in culture.
[11] abbreviates: terminally senescent cells (cpd 65), 2 µg/ml, quercetin caprylate 2 and 5 µg/ml.
Setting [12] is: terminally senescent cells, quercetin 2 µg/ml, quercetin caprylate higher concentrations.
The mark [13] stands for this setting: HFL-1 cells, 0, 5 µg/ml, 13 consecutive weeks.
The mark [14] stands for this setting: HFL-1 cells, 5 µg/ml, 13 consecutive weeks.

Entries after “also recorded” stand apart in the source; their conditions may differ.

As to `CC1(C)[C@@H](O)CC[C@]2(C)[C@H]3C(=O)C=C4[C@H]5C[C@@](C)(C(=O)O)CC[C@]5(C)CC[C@@]4(C)[C@]3(C)CC[C@@H]12` [18α-glycyrrhetinic acid], the “proliferation (number of cells)” value in experiment [1] (setting [7]) is “higher proliferation rates”. Besides, the β-galactosidase activity staining result in experiment [1] (setting [8]) is reported as “less positive to β-galactosidase activity staining”. For the same compound, in experiment [1], the morphology and proliferation result was “regained a younger morphology and were induced to limited but significant proliferation”. Also, the values for the cpd in experiment [2] (setting [9]) and in experiment [2] (setting [10]) were 67 and 65.02, respectively. In addition, in experiment [2] (setting [9]), the “cpd, change versus relative diluent control” value is “+2.9%”. For the same compound, the “appearance of the senescent phenotype” value in experiment [2] is “delay in the appearance of the senescent phenotype”. The “whitening of melanocyte pellet” value in experiment [3] (lower concentration (5 µg/ml)) is on record as “whitening potential”. The “protein levels of proteasome subunits (β5, α7)” value (“protein levels … (β5, α7)” below) in experiment [4] is “similar”. Moreover, the “levels of oxidized proteins” value in experiment [5] was “slightly lower levels of oxidized carbonylated proteins; also recorded: lower amounts of oxidized proteins”.

As to `CC1(C)CC[C@]2(C(=O)O)CC[C@]3(C)C(=CC[C@@H]4[C@@]5(C)CC[C@H](O)[C@@](C)(CO)[C@@H]5CC[C@]43C)[C@@H]2C1` [Hederagenin], the cpd turned out to be 65.4 in experiment [2] (setting [9]) and 65.06 in experiment [2] (setting [10]). Besides, in experiment [2] (setting [9]), the “cpd, change versus relative diluent control” value is reported as “+0.5%”. The “whitening of melanocyte pellet” value in experiment [3] (lower concentration (5 µg/ml)) is reported as “whitening potential”. Besides, the “protein levels … (β5, α7)” value in experiment [4] is “did not detect any up-regulation”. Moreover, the “protein levels of tyrosinase” value in experiment [6] (high concentration (10 µg/ml)) is “reduced protein levels of tyrosinase”.

With `O=c1c(O)c(-c2ccc(O)c(O)c2)oc2cc(O)cc(O)c12` [Quercetin], the results for the “proliferation (number of cells)” value in experiment [1] (setting [7]) and in experiment [1] (setting [11]) were “higher proliferation rates” and “limited but sigmificant cell proliferation”, respectively. Further, the β-galactosidase activity staining result is “less positive to β-galactosidase activity staining” in experiment [1] (setting [8]) and “many of those cells were negative for β-gatactosidase activity” in experiment [1] (setting [12]). For the same compound, the morphology and proliferation result in experiment [1] was “regained a younger morphology and were induced to limited but significant proliferation”. Moreover, the values for the cpd in experiment [2] (setting [9]) and in experiment [2] (setting [10]) were 57.24 and 54.39, respectively. In addition, in experiment [2], the “appearance of the senescent phenotype” value is reported as “delay in the appearance of the senescent phenotype”. Further, the “whitening effect compared to the other substances” value in experiment [3] (5 µg/ml and 10 µg/ml) was “notably more intensed”. Moreover, in experiment [3] (both concentrations (5 µg/ml and 10 µg/ml)), the “whitening of melanocyte pellet” value is “whitening potential”. The “protein levels … (β5, α7)” value in experiment [4] is recorded as “elevated protein levels”. Further, the “protein levels of tyrosinase” value in experiment [6] (5 µg/ml and 10 µg/ml) is reported as “reduced protein levels of tyrosinase”.

Turning to quercetin caprylate, the “proliferation (number of cells)” value in experiment [1] (setting [7]) was “higher proliferation rates”; in experiment [1] (setting [11]), “limited but sigmificant cell proliferation”. Moreover, the results for the β-galactosidase activity staining result in experiment [1] (setting [8]) and in experiment [1] (setting [12]) were “less positive to β-galactosidase activity staining” and “many of those cells were negative for β-gatactosidase activity”, respectively. The morphology and proliferation result in experiment [1] is “regained a younger morphology and were induced to limited but significant proliferation”. Besides, the cpd is 65.9 in experiment [2] (setting [13]); 66.0 in experiment [2] (setting [9]); 65.4 in experiment [2] (setting [14]); 65.09 in experiment [2] (Table 2, 0,5 µg/ml, 55 days in culture); 64.87 in experiment [2] (setting [10]); 63.96 in experiment [2] (Table 2, 5 µg/ml, 55 days in culture). Further, the “cpd, change versus relative diluent control” value was “+2.6%” in experiment [2] (setting [13]), “+2.8%” in experiment [2] (setting [9]) and “+1.9%” in experiment [2] (setting [14]). In addition, in experiment [2] (summary of Table 1, quercetin caprylate 0.5, 2 and 5 µg/ml, other substances 2 µg/ml), the “more population doublings as compared to the relative control cultures” value is on record as “up to 2.8%”. In experiment [2], the “appearance of the senescent phenotype” value is on record as “delay in the appearance of the senescent phenotype”. Also, the “protein levels … (β5, α7)” value in experiment [4] is reported as “elevated protein levels”. Also, the “protein levels of tyrosinase” value in experiment [6] (5 µg/ml and 10 µg/ml) is on record as “reduced protein levels of tyrosinase”. Further, in experiment [5], the “levels of oxidized proteins” value was “less oxidized proteins; also recorded: lower amounts of oxidized proteins”.
